{"source": "paper PMC5218480", "about": "(PLoS ONE, 2017)", "tested_on": "MV-4-11 cells", "assay": "Gene expression microarray analysis (Affymetrix PrimeView) and GSEA", "type": "cell-based, human", "parameters": "RFU PODN (11730768_x_at) / Fold change /veh PODN (11730768_x_at) / RFU LINC00158 (11744669_a_at) / Fold change /veh LINC00158 (11744669_a_at) / RFU DUSP10 (11751237_a_at) / Fold change /veh DUSP10 (11751237_a_at) / RFU ID3 (11757404_x_at) / Fold change /veh ID3 (11757404_x_at) / RFU PLEKHG5 (11737974_s_at) / Fold change /veh PLEKHG5 (11737974_s_at) / RFU LRRC4B (11730491_at) / Fold change /veh LRRC4B (11730491_at) / RFU GIMAP4 (11747438_a_at) / Fold change /veh GIMAP4 (11747438_a_at) / RFU KRT8 (11758183_x_at) / Fold change /veh KRT8 (11758183_x_at) / RFU CNN1 (11734310_a_at) / Fold change /veh CNN1 (11734310_a_at) / RFU VPS37D (11726825_at) / Fold change /veh VPS37D (11726825_at) / RFU C10orf10 (11716522_x_at) / Fold change /veh C10orf10 (11716522_x_at) / RFU KIR2DL2 /// KIR2DL4 /// KIR2DL5A /// KIR2DL5B /// KIR2DS1 /// KIR2DS2 /// KIR2DS3 /// KIR2DS4 /// KIR3DL3 /// KIR3DL3 /// KIR3DS1 (11738374_at) / Fold change /veh KIR2DL2 /// KIR2DL4 /// KIR2DL5A /// KIR2DL5B /// KIR2DS1 /// KIR2DS2 /// KIR2DS3 /// KIR2DS4 /// KIR3DL3 /// KIR3DL3 /// KIR3DS1 (11738374_at) / RFU C1QL1 (11718748_at) / Fold change /veh C1QL1 (11718748_at) / RFU TMPRSS4 (11747572_a_at) / Fold change /veh TMPRSS4 (11747572_a_at) / RFU HAMP (11756126_x_at) / Fold change /veh HAMP (11756126_x_at) / RFU RNFT2 (11725882_a_at) / Fold change /veh RNFT2 (11725882_a_at) / RFU NR4A2 (11747474_a_at) / Fold change /veh NR4A2 (11747474_a_at) / RFU ABCC12 (11746883_a_at) / Fold change /veh ABCC12 (11746883_a_at) / RFU TMEM136 (11760407_x_at) / Fold change /veh TMEM136 (11760407_x_at) / RFU CLDN22 /// WWC2 (11732394_at) / Fold change /veh CLDN22 /// WWC2 (11732394_at) / RFU HLA-DPB1 (11760878_x_at) / Fold change /veh HLA-DPB1 (11760878_x_at) / RFU SPINT1 (11716480_a_at) / Fold change /veh SPINT1 (11716480_a_at) / RFU GAP43 (11754022_s_at) / Fold change /veh GAP43 (11754022_s_at) / RFU A4GNT (11735810_at) / Fold change /veh A4GNT (11735810_at) / RFU PRB3 (11715151_x_at) / Fold change /veh PRB3 (11715151_x_at) / RFU TUBB4B (11761932_at) / Fold change /veh TUBB4B (11761932_at) / RFU CAPN14 (11732068_a_at) / Fold change /veh CAPN14 (11732068_a_at) / RFU TMCC2 (11721928_a_at) / Fold change /veh TMCC2 (11721928_a_at) / RFU IRGQ (11745062_a_at) / Fold change /veh IRGQ (11745062_a_at) / RFU FAM174B (11720279_a_at) / Fold change /veh FAM174B (11720279_a_at) / RFU TMPRSS4 (11748680_a_at) / Fold change /veh TMPRSS4 (11748680_a_at) / RFU FAM212B (11763350_a_at) / Fold change /veh FAM212B (11763350_a_at) / RFU PLEKHG5 (11743358_a_at) / Fold change /veh PLEKHG5 (11743358_a_at) / RFU ZSCAN30 (11745921_a_at) / Fold change /veh ZSCAN30 (11745921_a_at) / RFU CMKLR1 (11741424_a_at) / Fold change /veh CMKLR1 (11741424_a_at) / RFU LOC101060620 /// MAPK8IP1 (11723275_at) / Fold change /veh LOC101060620 /// MAPK8IP1 (11723275_at) / RFU SPTSSB (11747773_x_at) / Fold change /veh SPTSSB (11747773_x_at) / RFU PRSS12 (11739890_at) / Fold change /veh PRSS12 (11739890_at) / RFU BIN1 (11741810_x_at) / Fold change /veh BIN1 (11741810_x_at) / RFU WNT11 (11732464_a_at) / Fold change /veh WNT11 (11732464_a_at) / RFU C10orf10 (11716521_a_at) / Fold change /veh C10orf10 (11716521_a_at) / RFU C5orf56 (11738089_at) / Fold change /veh C5orf56 (11738089_at) / RFU CYB561 (11721691_x_at) / Fold change /veh CYB561 (11721691_x_at) / RFU ANKRD19P (11752326_a_at) / Fold change /veh ANKRD19P (11752326_a_at) / RFU OR2T12 /// OR2T33 /// OR2T8 (11738714_s_at) / Fold change /veh OR2T12 /// OR2T33 /// OR2T8 (11738714_s_at) / RFU VCAN (11748164_a_at) / Fold change /veh VCAN (11748164_a_at) / RFU JSRP1 (11732532_at) / Fold change /veh JSRP1 (11732532_at) / RFU KRTAP10-11 (11738290_x_at) / Fold change /veh KRTAP10-11 (11738290_x_at) / RFU MYO3A (11730013_a_at) / Fold change /veh MYO3A (11730013_a_at) / RFU EBF3 (11725865_a_at) / Fold change /veh EBF3 (11725865_a_at) / RFU CAMK2N1 (11719241_x_at) / Fold change /veh CAMK2N1 (11719241_x_at) / RFU C5orf56 (11738088_a_at) / Fold change /veh C5orf56 (11738088_a_at) / RFU OLFML3 (11715873_a_at) / Fold change /veh OLFML3 (11715873_a_at) / RFU LOC100653217 /// NTM (11731650_a_at) / Fold change /veh LOC100653217 /// NTM (11731650_a_at) / RFU MAPK11 (11762145_a_at) / Fold change /veh MAPK11 (11762145_a_at) / RFU FIZ1 (11724087_x_at) / Fold change /veh FIZ1 (11724087_x_at) / RFU OASL (11726364_x_at) / Fold change /veh OASL (11726364_x_at) / RFU SOX15 (11748057_x_at) / Fold change /veh SOX15 (11748057_x_at) / RFU CD79A (11719716_a_at) / Fold change /veh CD79A (11719716_a_at) / RFU HIST1H1D (11736915_at) / Fold change /veh HIST1H1D (11736915_at) / RFU CASKIN2 (11723855_a_at) / Fold change /veh CASKIN2 (11723855_a_at) / RFU LOC730098 (11760151_x_at) / Fold change /veh LOC730098 (11760151_x_at) / RFU OR4N2 (11742367_at) / Fold change /veh OR4N2 (11742367_at) / RFU PRRT2 (11749266_a_at) / Fold change /veh PRRT2 (11749266_a_at) / RFU SNX32 (11753110_a_at) / Fold change /veh SNX32 (11753110_a_at) / RFU CDHR5 (11726645_a_at) / Fold change /veh CDHR5 (11726645_a_at) / RFU RCAN1 (11760418_a_at) / Fold change /veh RCAN1 (11760418_a_at) / RFU FAM167A (11723789_a_at) / Fold change /veh FAM167A (11723789_a_at) / RFU FAM26E (11764081_at) / Fold change /veh FAM26E (11764081_at) / RFU ISYNA1 (11749810_s_at) / Fold change /veh ISYNA1 (11749810_s_at) / RFU ACY1 (11761880_at) / Fold change /veh ACY1 (11761880_at) / RFU 11764098_at / Fold change /veh 11764098_at / RFU SAMD14 (11745864_x_at) / Fold change /veh SAMD14 (11745864_x_at) / RFU NPB (11741838_a_at) / Fold change /veh NPB (11741838_a_at) / RFU TMPRSS6 (11731388_a_at) / Fold change /veh TMPRSS6 (11731388_a_at) / RFU KRTAP10-2 (11738614_at) / Fold change /veh KRTAP10-2 (11738614_at) / RFU ARHGAP8 /// PRR5-ARHGAP8 (11727945_x_at) / Fold change /veh ARHGAP8 /// PRR5-ARHGAP8 (11727945_x_at) / RFU KRTAP5-7 /// NADSYN1 (11734609_at) / Fold change /veh KRTAP5-7 /// NADSYN1 (11734609_at) / RFU RASL12 (11751679_a_at) / Fold change /veh RASL12 (11751679_a_at) / RFU CDKN2B (11736163_a_at) / Fold change /veh CDKN2B (11736163_a_at) / RFU PRF1 (11729649_at) / Fold change /veh PRF1 (11729649_at) / RFU, ZNF638 /// ZNF638-IT1 / Fold change vs veh, ZNF638 /// ZNF638-IT1 / RFU, PANK3 / Fold change vs veh, PANK3 / RFU, SH3YL1 / Fold change vs veh, SH3YL1 / RFU, ZEB2 / Fold change vs veh, ZEB2 / RFU, NRIP1 / Fold change vs veh, NRIP1 / RFU, PTTG1IP / Fold change vs veh, PTTG1IP / RFU, CAPN2 / Fold change vs veh, CAPN2 / RFU, MED14 / Fold change vs veh, MED14 / RFU, SNORA58 / Fold change vs veh, SNORA58 / RFU, C1orf63 / Fold change vs veh, C1orf63 / RFU, LRRFIP1 / Fold change vs veh, LRRFIP1 / RFU, NDUFAF7 / Fold change vs veh, NDUFAF7 / RFU, SLC12A2 / Fold change vs veh, SLC12A2 / RFU, IBTK / Fold change vs veh, IBTK / RFU, ESF1 / Fold change vs veh, ESF1 / Fold change vs veh, TMEM50B / RFU, TAOK1 / Fold change vs veh, TAOK1 / RFU, ACBD3 / Fold change vs veh, ACBD3 / RFU, TMA16 / Fold change vs veh, TMA16 / RFU, RWDD3 / Fold change vs veh, RWDD3 / RFU, BCAT1 / Fold change vs veh, BCAT1 / RFU, EDEM3 / Fold change vs veh, EDEM3 / RFU, TMEM33 / Fold change vs veh, TMEM33 / RFU, WDR75 / Fold change vs veh, WDR75 / RFU, AHCTF1 / Fold change vs veh, AHCTF1 / RFU, TFRC / Fold change vs veh, TFRC / RFU, ZDHHC17 / Fold change vs veh, ZDHHC17 / RFU, NOM1 / Fold change vs veh, NOM1 / RFU, ARL8B / Fold change vs veh, ARL8B / RFU, ZBTB11 / Fold change vs veh, ZBTB11 / RFU, TAMM41 / Fold change vs veh, TAMM41 / RFU, KIAA1704 /// LOC100996395 / Fold change vs veh, KIAA1704 /// LOC100996395 / RFU, ING1 / Fold change vs veh, ING1 / RFU, TRMT61B / Fold change vs veh, TRMT61B / RFU, FUBP3 / Fold change vs veh, FUBP3 / RFU, TP53 / Fold change vs veh, TP53 / RFU, TNKS2 / Fold change vs veh, TNKS2 / RFU, ZFP14 / Fold change vs veh, ZFP14 / RFU, ACTR2 / Fold change vs veh, ACTR2 / RFU, PPP3R1 / Fold change vs veh, PPP3R1 / RFU, PIK3R1 / Fold change vs veh, PIK3R1 / RFU, HNRNPA1 / Fold change vs veh, HNRNPA1 / RFU, RNF170 / Fold change vs veh, RNF170 / RFU, ZNF28 / Fold change vs veh, ZNF28 / RFU, RNGTT / Fold change vs veh, RNGTT / RFU, OGT / Fold change vs veh, OGT / RFU, BRD1 / Fold change vs veh, BRD1 / RFU, MARS / Fold change vs veh, MARS / RFU, ZNF655 / Fold change vs veh, ZNF655 / RFU, FAHD1 / Fold change vs veh, FAHD1 / RFU, BDP1 / Fold change vs veh, BDP1 / RFU, LRRCC1 / Fold change vs veh, LRRCC1 / RFU, ARID1A / Fold change vs veh, ARID1A / RFU, ZNF146 / Fold change vs veh, ZNF146 / RFU, ZNF330 / Fold change vs veh, ZNF330 / RFU, GPN3 / Fold change vs veh, GPN3 / RFU, C9orf123 / Fold change vs veh, C9orf123 / RFU, N4BP2L2 / Fold change vs veh, N4BP2L2 / RFU, ARFIP1 / Fold change vs veh, ARFIP1 / RFU, FAM179B / Fold change vs veh, FAM179B / RFU, BCL10 / Fold change vs veh, BCL10 / RFU, UHRF1BP1L / Fold change vs veh, UHRF1BP1L / RFU, BET1 / Fold change vs veh, BET1 / RFU, CNOT2 / Fold change vs veh, CNOT2 / RFU, ZNF268 / Fold change vs veh, ZNF268 / Fold change vs veh, ZNF507 / RFU, DGCR2 / Fold change vs veh, DGCR2 / RFU, WDSUB1 / Fold change vs veh, WDSUB1 / Fold change vs veh, HSP90B1 /// MIR3652 / RFU, ADSS / Fold change vs veh, ADSS / RFU, GK / Fold change vs veh, GK / RFU, ZNF148 / Fold change vs veh, ZNF148 / RFU, TAF9 / Fold change vs veh, TAF9 / RFU, SLC1A5 / Fold change vs veh, SLC1A5 / RFU, SLMO2 / Fold change vs veh, SLMO2 / RFU, ABCC4 / Fold change vs veh, ABCC4 / RFU, LOC101060439 /// RAP1B / Fold change vs veh, LOC101060439 /// RAP1B / RFU, RFX7 / Fold change vs veh, RFX7 / RFU, GTPBP10 / Fold change vs veh, GTPBP10 / RFU, CNEP1R1 / Fold change vs veh, CNEP1R1 / RFU, BIVM-ERCC5 /// ERCC5 / Fold change vs veh, BIVM-ERCC5 /// ERCC5 / RFU, ILF3 / Fold change vs veh, ILF3 / RFU 11762660_at / Fold change /veh 11762660_at / RFU VCAN (11757783_s_at) / Fold change /veh VCAN (11757783_s_at) / RFU DDX43 (11728927_at) / Fold change /veh DDX43 (11728927_at) / RFU KRT8 (11758188_x_at) / Fold change /veh KRT8 (11758188_x_at) / RFU NKD1 (11759106_at) / Fold change /veh NKD1 (11759106_at) / RFU SRD5A1 (11742802_a_at) / Fold change /veh SRD5A1 (11742802_a_at) / RFU TPSAB1 /// TPSB2 (11721975_s_at) / Fold change /veh TPSAB1 /// TPSB2 (11721975_s_at) / RFU GSTM3 (11746129_a_at) / Fold change /veh GSTM3 (11746129_a_at) / RFU IL23R (11737362_x_at) / Fold change /veh IL23R (11737362_x_at) / RFU TMEM51 (11727254_a_at) / Fold change /veh TMEM51 (11727254_a_at) / RFU PIWIL2 (11732686_x_at) / Fold change /veh PIWIL2 (11732686_x_at) / RFU ORM1 (11744905_x_at) / Fold change /veh ORM1 (11744905_x_at) / RFU CCDC152 (11743942_at) / Fold change /veh CCDC152 (11743942_at) / RFU ECM1 (11717891_a_at) / Fold change /veh ECM1 (11717891_a_at) / RFU IL23R (11748794_a_at) / Fold change /veh IL23R (11748794_a_at) / RFU TNFAIP8L3 (11732012_x_at) / Fold change /veh TNFAIP8L3 (11732012_x_at) / RFU MBOAT4 (11741988_at) / Fold change /veh MBOAT4 (11741988_at) / RFU 11764193_at / Fold change /veh 11764193_at / RFU TMEM53 (11763286_at) / Fold change /veh TMEM53 (11763286_at) / RFU MAGEB2 (11727129_at) / Fold change /veh MAGEB2 (11727129_at) / RFU TMEM200A (11744735_a_at) / Fold change /veh TMEM200A (11744735_a_at) / RFU CCDC152 (11751479_a_at) / Fold change /veh CCDC152 (11751479_a_at) / RFU FAM211A (11726209_a_at) / Fold change /veh FAM211A (11726209_a_at) / RFU RGS16 (11746705_a_at) / Fold change /veh RGS16 (11746705_a_at) / RFU VCAN (11755009_s_at) / Fold change /veh VCAN (11755009_s_at) / RFU RHOB (11743442_s_at) / Fold change /veh RHOB (11743442_s_at) / RFU RGS16 (11720943_a_at) / Fold change /veh RGS16 (11720943_a_at) / RFU RGS16 (11720944_at) / Fold change /veh RGS16 (11720944_at) / RFU, VPS4B / Fold change vs veh, VPS4B / RFU, CREB1 / Fold change vs veh, CREB1 / RFU, DNAJC13 / Fold change vs veh, DNAJC13 / RFU, GNAQ / Fold change vs veh, GNAQ / RFU, CDK5R1 / Fold change vs veh, CDK5R1 / RFU, ZRANB3 / Fold change vs veh, ZRANB3 / RFU, CUL4A / Fold change vs veh, CUL4A / RFU, CCNY / Fold change vs veh, CCNY / RFU, UFL1 / Fold change vs veh, UFL1 / RFU, COG3 / Fold change vs veh, COG3 / RFU, DIAPH2 / Fold change vs veh, DIAPH2 / RFU, SKA2 / Fold change vs veh, SKA2 / RFU, AFF3 / Fold change vs veh, AFF3 / RFU, LMF1 / Fold change vs veh, LMF1 / RFU, IPO11 / Fold change vs veh, IPO11 / RFU, DFFB / Fold change vs veh, DFFB / RFU, FOXP1 / Fold change vs veh, FOXP1 / RFU, CARD8 / Fold change vs veh, CARD8 / RFU, STRN3 / Fold change vs veh, STRN3 / RFU, ADK / Fold change vs veh, ADK / RFU, RASSF2 / Fold change vs veh, RASSF2 / RFU, WIPF1 / Fold change vs veh, WIPF1 / RFU, LARP1B / Fold change vs veh, LARP1B / RFU, RASA1 / Fold change vs veh, RASA1 / RFU, RB1 / Fold change vs veh, RB1 / RFU, PPFIA1 / Fold change vs veh, PPFIA1 / RFU, MAT2A / Fold change vs veh, MAT2A / RFU, CCT5 / Fold change vs veh, CCT5 / RFU, WDR92 / Fold change vs veh, WDR92 / RFU, CUX1 / Fold change vs veh, CUX1 / RFU, TTC7A / Fold change vs veh, TTC7A / RFU, TMEM135 / Fold change vs veh, TMEM135 / RFU, DEPTOR / Fold change vs veh, DEPTOR / RFU, CPM / Fold change vs veh, CPM / RFU, DNAJB6 / Fold change vs veh, DNAJB6 / RFU, CACNA2D3 / Fold change vs veh, CACNA2D3 / RFU, DTX4 / Fold change vs veh, DTX4 / RFU, TFCP2 / Fold change vs veh, TFCP2 / RFU, GMCL1 /// GMCL1P1 / Fold change vs veh, GMCL1 /// GMCL1P1 / RFU, AEBP2 / Fold change vs veh, AEBP2 / RFU, SNHG1 /// SNORD22 /// SNORD25 /// SNORD26 /// SNORD27 /// SNORD28 /// SNORD29 /// SNORD31 / Fold change vs veh, SNHG1 /// SNORD22 /// SNORD25 /// SNORD26 /// SNORD27 /// SNORD28 /// SNORD29 /// SNORD31 / Fold change (Aza/veh), C12orf56 (ProbeSet 11735607_a_at) / Fold change (ACY-1035/veh), C12orf56 (ProbeSet 11735607_a_at) / Fold change (Aza/veh), FGFR1OP (ProbeSet 11751329_s_at) / Fold change (ACY-1035/veh), FGFR1OP (ProbeSet 11751329_s_at) / Fold change (Aza/veh), VPS36 (ProbeSet 11739960_a_at) / Fold change (ACY-1035/veh), VPS36 (ProbeSet 11739960_a_at) / RFU SYPL1 (11715823_x_at) / Fold change /veh SYPL1 (11715823_x_at) / RFU IGFBP7 (11715501_s_at) / Fold change /veh IGFBP7 (11715501_s_at) / RFU REEP3 (11722064_at) / Fold change /veh REEP3 (11722064_at) / RFU IGLL1 (11728026_x_at) / Fold change /veh IGLL1 (11728026_x_at): dose or concentration left out as unconfirmed", "conditions": "MV-4-11 cells, 48 hours"}
{"compound": "Nc1ccc(-c2cccs2)cc1NC(=O)c1ccc2c(c1)cc(C1CC1)n2CCN1CCOCC1", "note": "[ACY-1035]", "values": [{"measurement": "RFU MAPK11 (11762145_a_at)", "value": 21.16, "unit": "RFU"}]}
